According to paper PMC2992995, “Characterization and Online Detection of Surfactin Isomers Based on HPLC-MS^n Analyses and Their Inhibitory Effects on the Overproduction of Nitric Oxide and the Release of TNF-α and IL-6 in LPS-Induced Macrophages” (Marine Drugs, 2010):

How the values were obtained:
Type in all cases: cell-based, murine
[1] = system: IL-6 production induced by LPS in RAW264.7 cells; test: Inhibition of IL-6 release induced by LPS (ELISA); settings: LPS 1 μg/mL, 6 h, samples 1–30 μM, mouse IL-6 ELISA of culture supernatant, means of four experiments
Protocol: (§1) RAW264.7 cells were incubated in RPMI 1640 medium supplemented with penicillin (100 U/mL), streptomycin (100 μg/mL) and 10% heat inactivated fetal bovine serum at 37 °C in a humidified incubator with 5% CO2.
Cells were treated by LPS (1 μg/mL) with or without samples (1–9, 1–30 μM) for 6 h. 100 μL of the culture supernatant was taken out to determine the level of TNF-α and IL-6 using respective enzyme-linked immunosorbent assay kit according to the manufacturer’s recommendations. Hydrocortisone was used as positive control.

[2] = system: NO production induced by LPS in RAW264.7 cells; test: Inhibition of NO production induced by LPS (Griess nitrite assay); settings: Mus musculus, LPS 1 μg/mL, 24 h, samples 1–30 μM, Griess reagent, means of four experiments
Protocol: as §1
Nitric oxide was determined by measuring the amount of nitrite in the cell culture supernatant, using Griess reagent (mixture of equal volume of reagent A and reagent B, (A): 1% sulphanilamide; (B): 0.1% naphthylethylene diamine dihydrochloride in 10% H3PO4). Hydrocortisone was used as positive control. RAW264.7 cells were treated by lipopolysaccharides (LPS, 1 μg/mL) with or without samples (1–9, 1–30 μM) for 24 h, then briefly centrifuged. 100 μL of the cell culture supernatant were mixed with 100 μL of Griess reagent, followed by incubation for 10 min at room temperature. The absorbance at 540 nm was measured and the inhibitory rates were calculated by using a standard calibration curve prepared from different concentrations of sodium nitrite.

[3] = system: TNF-α production induced by LPS in RAW264.7 cells; test: Inhibition of TNF-α release induced by LPS (ELISA); settings: LPS 1 μg/mL, 6 h, samples 1–30 μM, mouse TNF-α ELISA of culture supernatant, means of four experiments
Protocol: as §1
[…] 100 μL of the culture supernatant was taken out to determine the level of TNF-α and IL-6 using respective enzyme-linked immunosorbent assay kit according to the manufacturer’s recommendations. Hydrocortisone was used as positive control.

For `C[C@]12CCC(=O)C=C1CC[C@@H]1[C@@H]2[C@@H](O)C[C@@]2(C)[C@H]1CC[C@]2(O)C(=O)CO` [Hydrocortisone], the IC50 [1] was 63.9 µM, the IC50 [2] was 64.3 µM and the IC50 [3] was 85.6 µM.
